How the values were obtained:
[1] = tested on: human PRP (Platelet Rich Plasma), platelet aggregation induced by ADP; assay: In vitro platelet antiaggregation activity (Born method, ADP-induced); format: cell-based; conditions: Platelet, ADP 10^-3 mM
Experimental: The method described by Born (Nature, 194, 927, 1962) was followed for this test, based on the increase in the platelet aggregation induced by ADP. The experiment was conducted using a human PRP (Platelet Rich Plasma) pool from four healthy volunteers who had not taken any drugs for ten days. The PRP was adjusted to 280,000±20,000 and kept at ambient temperature for the entire duration of the test.
400 μl of PRP and 100 μl of MRAP2 dissolved in a physiological solution and adjusted to a pH of 7.4 were placed in plastic test tubes. Three doses of the drug in question (0.181, 0.904 and 1.818 mg/ml) were used.
Three dilutions of aspirin were prepared under the same conditions for use as a comparison drug. Two minutes after contact between the drug and PRP, the test tube was inserted into the aggregometer cell (EEI, Model 169 with Corning Recorder Mod.840). After 60 seconds, ADP (10^-3 mM) was added and the aggregation was recorded. In calculating the antiaggregation activity, reference was made to the maximum amplitude of the aggregation curved obtained with ADP. Assuming this amplitude to be 100, the amplitudes of the curves obtained with the various doses of MRAP2 and aspirin were calculated as a percentage.

platelet aggregation = assay: In vivo platelet antiaggregation activity; design: species or system male rats, Wistar strain; conditions: rats, single oral dose 3 mg/kg
Experimental: This experiment was carried out on male rats of the Wistar strain having a weight of 320±20 grams. Both the MRAP2 and the aspirin (used as a comparison drug) were dissolved in a physiological solution, and the solutions, adjusted to pH 7.4, were administered orally in doeses of 3 mg/kg to two groups of three rats each. […] The concentration of the solution was adjusted to contain 100 mg of MRAP2 per ml. Blood samples were drawn from each animal 72 and 120 hours after treatment, for checking the platelet aggregation. In calculating the activity, the previous method was used (the average of the three maximum amplitudes of the curves obtained with the untreated rats was given the control figure of 100%).

stomach (gastric lesion) = assay: Ulcerogenic activity in rats after a single administration; format: in vivo, male albino rats, Wistar strain; conditions: rat, in vivo, po
Experimental: The ulcerogenic activity of MRAP2 was tested both after a single administration of the drug, and after prolonged administration.
In these tests, a total of 70 male albino rats of Wistar strain were used, having a weight of 200±20 grams.
The MRAP2 was administered diluted in tap water.
40 rats, fasted for 18 hours before the experiment, were divided into four batches of ten animals and treated orally as follows:
3rd group: MRAP2 (50 mg/kg)
4th group: MRAP2 (125 mg/kg).
The animals were killed after six hours. The stomach was withdrawn and the gastric lesion index was evaluated in terms of an arbitrary scale of values lying between 0. and 7 based on previous models proposed by other authors.
Furthermore, the treatment was randomised in order to eliminate any possible polarisation of the data.
The points given for gastric ulcerative lesions were as follows:
(1) hyperaemia or slight capillary obstruction; or slight loss of the epithelium; or some petechiae even with pale mucosa without hyperaemia;
(2) diffuse capillary obstructions or numerous petechiae; or diffuse loss of the epithelium; of a few surface lesions;
(3) strong submucosa haemorrhage; or many petechiae and small surface lesions; or much anaemic mucosa (yellowish colour); or up to three small ulcers;
(4) general pattern as in the previous numbers, plus up to ten small ulcers; or long erosions; or up to three medium sized ulcers;
(5) pattern as in number 4, with up to 15 small ulcers; or up to 6 large ulcers;
(6) pattern as previously, with up to ten large ulcers, plus small ulcers;
(7) pattern as previously, plus up to ten large ulcers and small ulcers; cases of perforated ulcers.

Row | Compound | inhibition of platelet aggregation at 181 µg/mL ([1]; drug 0.181 mg/ml) [%] | activity at 181 µg/mL ([1]; drug 0.181 mg/ml, serum + ADP = 100) [%] | inhibition of platelet aggregation at 904 µg/mL ([1]; drug 0.904 mg/ml) [%] | activity at 904 µg/mL ([1]; drug 0.904 mg/ml, serum + ADP = 100) [%] | inhibition of platelet aggregation at 1818 µg/mL ([1]; drug 1.818 mg/ml) [%] | activity at 1818 µg/mL ([1]; drug 1.818 mg/ml, serum + ADP = 100) [%] | % platelet antiaggregation activity on day 3 (platelet aggregation; day 3 (72 hours)) [%] | % platelet aggregation on day 3 (platelet aggregation; day 3 (72 hours), controls = 100) [%] | % platelet antiaggregation activity on day 5 (platelet aggregation; day 5 (120 hours)) [%] | % platelet aggregation on day 5 (platelet aggregation; day 5 (120 hours), controls = 100) [%] | incidence of ulcerative lesions (in words) (stomach (gastric lesion))
1 | CC(=O)Oc1ccccc1C(=O)O [aspirin, reference compound] | 5 | 95 | 63 | 37 | 74 | 26 | 25 | 75 | 25 | 75 | 
2 | CCCCC1C(=O)N(c2ccccc2)N(c2ccccc2)C1=O [phenylbutazone, reference compound] |  |  |  |  |  |  |  |  |  |  | very marked

From US4221805A, “Method of inducing platelet antiaggregation activity” (priority 1978, dated 1980)
